Series [1] has as its system CD13 expressed in HL-60 cells. As to the kind of experiment: Inhibition of cell-associated CD13 enzymatic activity, HL-60 cells. It counts as cell-based, human. The conditions noted are these: 3 × 10^5 cells/well, L-alanine p-nitroanilide, 30 min, 37 °C, absorbance 405 nm. As for the experimental part: Fig. 5 Quantification of CD13 expressed by HL-60 and HUVEC by western blotting and FACS analyses, and determination of their enzymatic activity. A Western blotting (WB) analysis of CD13 expression in HL-60 cells and HUVEC. For both cell lines, 2 µg of cell lysates were loaded in each well (n = 4–5 replicates, as indicated). After blotting, the membrane was cut and analyzed for CD13 and actin expression as described in Material and methods. The results of one representative experiment, out of three independent experiments performed, are shown (bars, ratio of CD13/actin band intensity, mean ± SEM). Recombinant human CD13 (rCD13) (20 ng) was loaded as positive control. MW, molecular weight markers. B FACS analysis of CD13 expression in HUVEC and HL-60 cells. The cells were incubated with mAb WM15 (10 μg/mL) and stained with a FITC-labeled goat anti-mouse IgG (H + L) secondary antibody. Data were expressed as fluorescence intensity and normalized to the number of cells. The cumulative results of three independent experiments are shown (each performed in duplicate; mean ± SEM). C Enzyme activity assay of CD13 expressed in HUVEC and HL-60 cells. […] Absorbance at 405 nm was measured using a plate reader. The enzyme units in each sample were calculated using rCD13 as a standard and were normalized to the number of cells. […] The absorbance was measured at 405 nm using a plate reader. […]

The next series relates to WEHI-164 fibrosarcoma. Put plainly: Antitumor activity in WEHI-164 fibrosarcoma-bearing mice. It counts as in vivo. As for the experimental part:
Female BALB/c mice (Charles River Laboratories, Calco, Italy), weighing 16–18 g, were subcutaneously injected into the left flank of 10^6 WEHI-164 cells (ATCC, cat. CRL-1751, Lot. 63,682,839). Dose-finding experiments were performed with groups of six mice treated with G4-TNF (4, 20, or 100 pg/dose in 100 μL of 0.9% sodium chloride containing 100 µg/ml HSA, intraperitoneally injected on day 5) or vehicle. Tumor growth was monitored daily by measuring tumor volume with calipers, as previously described. The animals were sacrificed before the tumor diameter reached 1.0–1.5 cm. To test whether the antitumor activity of G4-TNF was mediated by CD13, tumor-bearing mice (6 animals/group) were treated with a single injection of G4-TNF (100 pg/dose, i.p.) in combination with peptide CNGRC (100 µg/dose) or anti-CD13 mAb R3-63 (25 µg/dose, given 1.5 h i.p. before administration of G4-TNF) 5 days after tumor implantation.
Fig. 3 Effect of G4-TNF on tumor growth and body weight of mice bearing WEHI-164 fibrosarcomas. A Mice bearing subcutaneous WEHI-164 tumors (5–6 mice/groups) were treated 5 days after tumor implantation with a single intraperitoneal injection of G4-TNF (0, 4, 20, or 100 pg). Tumor volume and body weight after treatment were monitored daily. B Effect of mAb R3-63 (anti-murine CD13 antibody, 25 µg) and CNGRC peptide (100 µg) on the antitumor activity of G4-TNF (100 pg) (5–6 mice/group). The arrows indicate the time of treatment. *P < 0.05; **P < 0.01, by Mann–Whitney analysis of the area under the curve for each tumor, with the GraphPad Prism software (mean ± SEM)
A) Mice bearing subcutaneous WEHI-164 tumors (6 mice/groups), were treated 5-6 days after tumor implantation with a single intraperitoneal injection of murine NGR-TNF (0, 25, 50, or 100 pg). Tumor volume and body weight after treatment were monitored daily.
B) Effect of murine TNF (50 pg) on tumor growth and body weight. The arrows indicate the time of treatment (mean ± SEM).

Series [2] has as its system soluble CD13 from human serum (sCD13). As to the kind of experiment: Competitive ELISA of sCD13 binding to mAb WM15. The conditions noted are these: plates coated with mAb WM15 5 μg/mL, human serum diluted 1:2, 2 h, room temperature. As for the experimental part: Fig. 4 The active site of membrane CD13 expressed by HUVEC, but not that of soluble CD13 or membrane CD13 expressed by HL60 cells, is accessible to G4-TNF. A Competitive effects of G4 and G4-TNF on the binding of mAb WM15 (anti-CD13) to sCD13 or rCD13 showing the lack of binding of G4-TNF to natural and recombinant soluble CD13 (sCD13 and rCD13). G4, scrambled G4 (GCRSNCYRVG), and TNF were used as positive (G4) and negative (scrambled G4, TNF) controls. The sCD13 competition assay was performed as follows: microplates were coated with mAb WM15 (5 μg/mL) in DPBS and incubated overnight at 4 °C. […] The mixtures were incubated for 2 h at room temperature and washed with DPBS. To detect bound sCD13, we added an anti-CD13 rabbit polyclonal antibody (1:1000, 1 h at room temperature), washed with DPBS, and added peroxidase-labeled goat anti-rabbit secondary antibody (1:2000, 1 h). Bound peroxidase was detected using o-phenylendiamine chromogenic substrate. The absorbance of o-phenylenediamine was measured at 490 nm using an ELISA plate reader (Bio-Rad). Cumulative results of two independent experiments, each performed in duplicate, are shown (mean ± SEM). The rCD13 competition assay was performed as described in Supplementary Fig. S2 (one experiment in duplicate, mean ± SEM). […]

“VGCARRYCS-TNF [G4-TNF, recombinant murine TNF fused to the C-terminus of G4]”: the “Inhibition of CD13 enzymatic activity associated with HL-60 cells (in words)” value in series [1] is recorded as “did not inhibit”. For the same substance, in the series with WEHI-164 fibrosarcoma (mice after treatment with 4, 20 or 100 pg i.p.), the “Body weight and clinical signs of toxicity” value was “No loss of body weight and no other clinical signs of toxicity”. In addition, the “Antitumor effect (tumor growth)” value in the series on WEHI-164 fibrosarcoma (single intraperitoneal injection of 100 pg, 5 days after tumor implantation) was “significant antitumor effects”. The “Competition of sCD13 binding to mAb WM15 (in words)” value in series [2] is “no competition was observed”.

These data come from publication PMC10827914 (Cellular and Molecular Life Sciences: CMLS, 2024).
